Results from patent US10792260B2, “Retinopathy treatment” (CHS Pharma, Inc., priority 2013, dated 2020).

Columns and labels:
ARPE19 cells [1] = assay: UVB radiation induced damage, cell viability by MTS assay
Experimental: Cell culture studies using RPE cells—For cell culture experiments human RPE cell line ARPE19 (ATCC # CRL 2302) purchased from American Type Culture Collection (Rockville, Md.) was used. Cells were maintained in DMEM F-12 supplemented with L-glutamine. The culture media also contained 10% fetal bovine serum, 100 units/ml penicillin and 100 ug/ml streptomycin at 37 C and 5% CO2. Cells from passages two to five were treated with either no drug or a range of concentrations of the experimental drugs prior to exposing them to oxidative stress. […] ARPE19 cells were plated in 96 well plates at a concentration of 10,000 cells/well. Change in cellular viability was measured using the MTS assay kit from Promega (Madison, Wis.).
Exposure of RPE cells to UVB radiation—For UV radiation assays, the ARPE19 cells were plated in 96 well plates. After 24 hours of incubation with or without our drug the cells were exposed to UVB light (Ultraspec 2000, Pharmacia Biotech) that emit wavelengths at a range of 290 nm to 370 nm. UVB light at intensities of either 800 mj/cm2 or 1200 mj/cm2 were used for our experiments. The duration of exposure of the two energy levels were determined using the formula: Hλ=t×Eλ, where Hλ is the energy level (J/cm2) t is the duration of exposure in seconds and the Eλ is the irradiance (W/cm2) of the UVB source. Irradiance was measured at 1.3 W/cm2, and the exposure times for energy levels of 800 mj/cm2 and 1200 mj/cm2 were calculated to be 9 minutes 14 seconds and 14 minutes 24 seconds, respectively. Immediately after the UVB exposure, the media was replaced with fresh complete DMEM F-12 medium and after 24 hours of incubation at 37° C. and 5% CO2, cellular viability was measured using the MTS assay.
(§2) Cell viability assays—Cellular viability was determined using the CellTiter 96 Aqueous One Cell Proliferation Assay from Promega (Madison, Wis.) as described elsewhere (Marchetti et al, 2009). This assay contains a tertrazolium salt that is converted to formazan dye by the activity of mitochondrial dehydrogenases. The change in color imparted by this conversion was detected by measuring absorbance at 490 nm using a colorimetric microtiter plate reader (Spectramax Plus 384, Molecular Devices).
(§3) Statistical analysis—Unless otherwise mentioned, results of all cell viability experiments represent the mean of three replicates of a representative experiment. The error bars indicate standard deviations. The means were compared using standard t-test and P values <0.05 were considered to be statistically significant.

ARPE19 cells [2] = assay: TBHP induced oxidative stress, cell viability by MTS assay; conditions: for protection against TBHP damage as measured by cell viability: 24 hours pretreatment, varying concentrations of TBHP
Experimental: Cell culture studies using RPE cells—For cell culture experiments human RPE cell line ARPE19 (ATCC # CRL 2302) purchased from American Type Culture Collection (Rockville, Md.) was used. Cells were maintained in DMEM F-12 supplemented with L-glutamine. The culture media also contained 10% fetal bovine serum, 100 units/ml penicillin and 100 ug/ml streptomycin at 37 C and 5% CO2. Cells from passages two to five were treated with either no drug or a range of concentrations of the experimental drugs prior to exposing them to oxidative stress. Oxidative stress was induced chemically by adding tert-butyl hydrogen peroxide (TBHP) or by exposing the cells to UVB light. ARPE19 cells were plated in 96 well plates at a concentration of 10,000 cells/well. Change in cellular viability was measured using the MTS assay kit from Promega (Madison, Wis.).
Experiments involving TBHP induced oxidative stress—ARPE19 cells were grown for 24 hours in 96 well plates in DMEM F-12 complete media. Then they were either treated with no drug or pre-incubated with the experimental drug for 24 hours. The next day the cells were exposed to a range of concentrations (175 μM to 300 μM) of TBHP for 24 hours. On the following day cell viability was measured by the MTS assay (Promega) according to the manufacturer's protocol and which was measured by absorbance at 490 nm using a colorimetric microtiter plate reader (SpectraMax Plus 384; Molecular Devices).
as §2, §3

iNOS = assay: Western blotting of preconditioning marker iNOS in ARPE19 cells; assay type: cell-based, human; conditions: RPE cells pretreated for 48 hours, 200 μM
Experimental: (§1) Western blotting protocol—Western blotting was carried out on proteins isolated from ARPE19 cells cultured in 60 mm dishes with no drug or 200 μM sulindac or a combination of 200 μM sulindac and 2 μM chelerythrine. Actin and GAPDH were used as control for standardizing protein concentrations. Two late phase preconditioning markers, Hsp27 and iNOS were detected with antibodies (Sant Cruz Biotechnology).

BALB/c mice = assay: Photooxidative stress in vivo study (light damage, intravitreal injection)
Experimental: Photooxidative stress in vivo study—The procedures for the in vivo experiments conformed to the ARVO Statement for the Use of Animals in Ophthalmic and Vision Research and were approved by the IACUC at FAU. For the in vivo photooxidative stress experiments albino BALB/c mice were divided into two groups. Mice belonging to the control group were kept in normal light of 12 hr light/dark cycle and not injected with any drug. The animals of the experimental group were dark-adapted for 24 hours after which they were anesthetized with ketamine/xylazine and injected intravitrealy with sulindac, total volume injected was 2 μl in each eye. Concentration of injected sulindac was 0.094 μg/μl. To prepare our injection, the sulindac powder was first dissolved in Tris buffer (pH 8.0) at a concentration of 200 mM. This 200 mM stock was further diluted in sterile PBS to get the appropriate dilution required for the injections. The sulindac solution was injected into the right eye and PBS in the left eye. The animals in the experimental group received atropine for pupil dilation followed by exposure to continuous bright white light. The intensity and duration of light exposure was 6000 lux for 24 hours. Following light exposure, animals were kept in normal light cycle for 5 days prior to harvesting the ocular tissues for histological or biochemical analysis.
Biochemical analysis of ocular tissues—After the completion of the treatment, animals were euthanized using isoflurane inhalation and eyes were enucleated. Following enucleation, the lenses were removed and retinas were carefully removed and washed in PBS. The retinas were homogenized in RIPA lysis buffer and total protein was isolated. The retinal protein was used for evaluation of preconditioning markers and rhodopsin through Western blotting.
Analysis of photoreceptor (PR) cell viability—The eyes were enucleated and fixed in 2.5% glutaraldehyde and 2% formaldehyde, bisected along the vertical meridian, embedded, and retinal sections at 50 microns obtained. Photoxidative stress-induced loss of PR cells was quantified in LM sections by counting the number of ONL nuceli from a series of digitized images of retinal sections.

Hsp27 = assay: Western blotting of preconditioning marker Hsp27 in ARPE19 cells; assay type: cell-based, human; conditions: RPE cells pretreated for 48 hours, 200 μM
Experimental: as §1

[3] = eyes treated prior to light exposure
[4] = intravitreal 2 μl of 0.094 μg/μl before 6000 lux for 24 hours
[5] = inhibitor 2 uM added simultaneously with sulindac

With `O=c1c2nc(Br)n([C@@H]3O[C@@H]4CO[P@@](O)(=S)O[C@H]4[C@H]3O)c2nc2[nH]c(-c3ccccc3)cn12` [Rp-Br-8-PET-cGMPs] the “reversal of protection by sulindac preincubation (UVB damage) on PKG inhibition” value (ARPE19 cells [1]; PKG inhibitor with sulindac) was “significantly reversed”.
`CC1=C(CC(=O)O)c2cc(F)ccc2/C1=C\c1ccc([S+](C)[O-])cc1` (stereo not drawn) [sulindac] was tested, and the “protection against TBHP damage as measured by cell viability” value (ARPE19 cells [2]; sulindac 125 uM) was “essentially complete protection”, the “protection against TBHP damage as measured by cell viability” value (ARPE19 cells [2]; sulindac 200 uM) was “essentially complete protection” and the “induction of iNOS” value (iNOS) was “significant induction”. The “Hsp27 level in retinal total protein (Western blotting)” value (BALB/c mice; [3]) was “upregulation”, the “iNOS level in retinal total protein (Western blotting)” value (BALB/c mice; [3]) was “upregulation” and the “Rhodopsin levels by Western blotting, treated eye compared to PBS-treated eye” value (BALB/c mice; [4]) was “higher”. For the same molecule, the “protection of photoreceptors against photooxidative stress induced loss of viability (histology)” value (BALB/c mice; [4]) was “protection of photoreceptors”, the “thickness of the photoreceptor cell nuclear layer, greater than PBS-treated eye” value (BALB/c mice; intravitreal 2 μl of 0.094 μg/μl before 6000 lux for 24 hours, histological sections) was “about 40%” and the “protection against UVB exposure (cell viability)” value (ARPE19 cells [1]; 200 uM, 24 hours pretreatment, 1200 mj UVB) was “about 50%”. For the same molecule, the “induction of Hsp27” value (Hsp27) was “significant induction”.
For `COc1ccc2c(c[n+](C)c3c4cc5c(cc4ccc23)OCO5)c1OC` [chelerythrine], the “reversal of protective effect of sulindac against TBHP damage” value (ARPE19 cells [2]; [5]) was “significantly reversed the protective effect” and the “reversal of protective effect of sulindac against UV damage” value (ARPE19 cells [1]; [5]) was “significantly reversed the protective effect”.
For `CC1=C(CC(=O)O)c2cc(F)ccc2/C1=C\c1ccc(S(C)(=O)=O)cc1` [sulindac sulfone], the “protection against UV damage (cell viability)” value (ARPE19 cells [1]; 200 uM, in place of sulindac) was “complete protection”.
With `CC(=O)c1c(O)c(C)c(O)c(Cc2c(O)c3c(c(C(=O)/C=C/c4ccccc4)c2O)OC(C)(C)C=C3)c1O` [rottlerin] the “reversal of the sulindac protection against UVB” value (ARPE19 cells [1]; inhibitor 3 uM with sulindac) was “no reversal”.
In the case of `CCC(=O)NC[C@H](Cc1ccc(OCCc2nc(-c3ccccc3)oc2C)cc1)N/C(C)=C\C(=O)c1ccc(C(F)(F)F)cc1` [GW 6471], the “effect on sulindac's protection of RPE cells against TBHP induced stress” value (ARPE19 cells [2]; PPAR alpha antagonist added with sulindac) is reported as “prevented the protection”.
In the case of `O=S(=O)(O)c1cc(O)c(O)c(S(=O)(=O)O)c1` [tiron], the “reversal of sulindac's protection against TBHP” value (ARPE19 cells [2]; ROS scavenger 1 uM or 2 uM coincubated with sulindac) is reported as “complete reversal”.
In the case of `CCCCCC(O)CCCC(=O)O` (stereo not drawn) [5-HD, 5-hydroxydecanoic acid], the “reversal of sulindac's protective role against TBHP” value (ARPE19 cells [2]; mK(ATP) channel blocker 50 uM or 75 uM co-incubated with sulindac) is reported as “almost complete reversal”.
